US9914698B2, “Stearoyl amino acid salt and preparation method and application thereof” (Shanghai Jiaotong University School of Medicine, priority 2014, dated 2018)
Where two headings read alike, the source gives them in different places. Marks after values point to notes of the source that are not given here.

How the values were obtained:
[1] = Equilibrium solubility, shake-flask method; type: physicochemical
Protocol: (§1) The shake-flask method was used to test the equilibrium solubility of NsTyr, NsTyr-2K, NsTyr-2Na in water at 37° C. […] The apparent lipid-water distribution coefficient log p of NsTyr-2K, NsTyr-2Na was respectively 1.512 and 1.477. Under different pHs, see Table 1 for the equilibrium solubility test data of NsTyr-2K, NsTyr-2Na; and see Table 2 for the apparent lipid-water distribution coefficient of NsTyr-2K and NsTyr-2Na.

[2] = Absorption kinetics after intragastric administration; type: in vivo; settings: both sexes, Sprague-Dawley (SD), rat, blood; SD rats, oral 200 mg/kg
Protocol: Ten SD rats weighing 150-180 g were randomly divided into two groups, each comprising five, with males and females combined. After intragastric administration of 200 mg/kg of saline solution containing NsTyr and NsTyr-2K, the average blood concentration-time curve thereof was respectively shown in FIG. 2.

[3] = Apparent lipid-water distribution coefficient; type: physicochemical
Protocol: as §1

[4] = Stability assessment (influencing factors, acceleration and long-term tests, Chinese Pharmacopoeia 2010); type: physicochemical; settings: high temperature, high humidity, strong light
Protocol: Considering that prototype drug stearoyl amino acid tend to absorb moisture, cake and become yellowish during long-term storage, the stearoyl amino acid is now converted into a form of active salt thereof. And the stability of NsTyr-2K and NsTyr-2Na was tested as required for bulk pharmaceutical chemicals according to the People's Republic of China Pharmacopoeia 2010.

[5] = system: APP/PS1/TAU transgenic mice; assay: Open-field test; type: in vivo
Description: (§2) Materials for open-field test: a spontaneous activity watch box (80×80×30), on top of which is furnished with a fluorescent lamp as a lighting system, and on the center of whose roof is a CCD camera connected to the computer; and an ethological computer image analysis system (SHANGHAI MOBILEDATUM TECH INFORMATION CO. LTD).
(§3) Laboratory animals: C57BL/6I (from Jackson Lab) (APP/PS1/TAU transgenic mice) in C57BL/6J (TAU transgenic mice). All APP/PS1/TAU transgenic mice and TAU transgenic mice belong to the mouse disease model as for Alzheimer's disease.
(§4) [1] Priscila Cagni, Mrilia Barros. Cannabinoid type I receptor ligands WIN 55,212-2 and AM251 alter anxiety-like behaviors of marmoset monkeys in an open-field test. Behavioural Brain Research 2013; 240:91-94.
(§5) Principles: Open-field test is useful for evaluation of mouse anxiety and behavior probing the outside world. By nature mice are capable of both exploring the unknown territory and protecting themselves from damage due to external potential risks. Open-field test, therefore, can test such mouse capabilities by recording their duration of stay at the marginal area and the central area (where anxiety occurs) in an open field. Meanwhile, the test as such can also measure mouse movement capabilities such as speed.

TAU transgenic mice [6] = assay: Open-field test; type: in vivo; settings: medium-dose (30 mg/kg) and high-dose (45 mg/kg)
Description: as §2, §3, §4, §5

[7] = system: APP/PS1/TAU transgenic mice; assay: High plus maze test; type: in vivo; settings: different doses
Description: (§6) Materials for high plus maze: consisting of two opening arms opposite to each other and two closing arms opposite to each other, a central platform connecting the aforesaid arms, and a short, 1-cm-high damper along the edges of the opening arms (to prevent animals from slipping off the maze in the process of exploring), with the floors of the four arms and the central platform being black; the floor of the maze adjusted to be 50 cm away from the laboratory ground; and an ethological computer image analysis system (SHANGHAI MOBILEDATUM TECH INFORMATION CO. LTD).
as §3
(§7) Principles: With a couple of opening arms and another couple of closing arms, the high plus maze is useful for assessment of animal anxiety by taking advantage of animal tendency to explore a new extraneous environment as well as their fear of high and open extending arms, which form a behavioral conflict. Rodents tend to move within closing arms due to their fondness of dark, but will, out of curiosity, go into opening arms and move around there. When stimulated by a novel environment, they will engender an impulse to explore and a fear at the same time.

TAU transgenic mice [8] = assay: High plus maze test; type: in vivo
Description: as §6, §3, §7

[9] = system: APP/PS1 TAU transgenic mouse; assay: Rota rod test; type: in vivo, mice; settings: high-dose
Description: Materials for rota rod test: rotary rod type fatigue tester YLS-4C (SHANGHAI MOBILEDATUM TECH INFORMATION CO. LTD).
as §3
Principles: Rota rod is useful for studying the effects of drugs upon movement coordination and fatigue resistance.

[10] = system: APP/PS1/TAU transgenic mice; assay: Morris water maze test (place navigation and spatial probe); type: in vivo
Description: (§8) Materials for water maze test: a constant-temperature swimming pool, a platform for mice, and an ethological computer image analysis system (SHANGHAI MOBILEDATUM TECH INFORMATION CO. LTD).
as §3
(§9) Principles: Morris water maze test programs comprise two parts: place navigation test and spatial probe test. The former lasted a few days; each day mice were respectively put into water from four entries several times, and the time they spent seeking the platform hidden underwater (escape latency) was recorded. When place navigation test ended, the platform was removed. The latter recorded the mouse swimming trajectory after the mice were put into water from any chosen entry, and assessed their previous memory of the platform.

TAU transgenic mice [11] = assay: as above; type: in vivo
Description: as §8, §3, §9

obese mouse model [12] = assay: Administration test in obese mouse model (weight, food intake); type: in vivo, C57BL/6 mice
Protocol: 2. Method: 60 C57BL/6 mice (aged 3 weeks, male, with a weight of 8.3 g each) were adaptively fed with 12% kcal normal diet for one week, and randomly divided into 6 groups, each consisting of 10 mice. One group (ND) continued to be fed with normal diet, the rest five groups (HFD I˜V) were fed with 45% kcal high-fat diet.
In the whole test process the mice kept raised in the following environment: temperature: 23±3° C.; humidity: 50±5%; bright and dim alternating cycle: 12 h/12 h; freely available to diet and drinking water in the whole process.
2. Method: ND and HFD I were respectively taken as normal and high-fat diet blank control groups, and were treated with 0.5% sodium carboxymethyl cellulose solution (5 ml/kg/day); HFD II˜IV were taken as groups of recipients, and were treated with NST-2K (20, 60, 100 mg/kg/day); HFD V was taken as a positive control group, and treated with Orlistat (100 mg/kg/day). All the above drugs dissolved in aqueous solution of 0.5% sodium carboxymethyl cellulose and were administered. The administration remained four weeks. In each week average weight and food intake were kept in record until the phase of administration ended.

obese mouse model [13] = assay: Collection and observation of fat and liver tissues of obese mice; type: in vivo, C57BL/6 mice; settings: 100 mg/kg/day
Description: 2. Method: After administration test in Embodiment 8, the mice were denied food overnight. Their abdominal cavity was opened to observe abdominal fat content in each group of the mice. Epididymal fat, perirenal fat and liver were separated and weighed.

obese mouse model [14] = assay: H&E staining of fat and liver tissue of obese mice; type: in vivo, C57BL/6 mice
Protocol: 2. Method: Epididymal fat and liver were fixed in 10% neutral formaldehyde solution for 48 h. After paraffin embedding they were made into […] of slices, and stained with hematoxylin-eosin (H&E staining). Light microscope was used to observe the size of fat cells, the structure of liver cells and adipose accumulation.

[15] = system: gerbil model with global ischemia reperfusion injury; assay: Neurobehavioral scores of acute cerebral ischemia reperfusion model; type: in vivo; settings: positive control group, dose not given; ischemic model group 3.1+/−0.32
Description: Taking N-stearoyl amino acid potassium NsTyr-2K as an example, a gerbil model with global ischemia reperfusion injury was used to assess the protective role of NsTyr-2K against neurobehavioral disorder caused by cerebral ischemia-reperfusion injury by examining the changing behavioral indexes such as spatial, learning and cognitive functions in the perspective of overall animals during passive dark avoidance test and Morris water maze test.

[16] = day 5, medium-dose and high-dose group, *P<0.05

CCCCCCCCCCCCCCCCCC(=O)N[C@@H](Cc1ccc(O)cc1)C(=O)O [NsTyr, N-stearoyl tyrosine]
solubility thermodynamic ([1]; thermodynamic from solid, water, 37° C., read-out: equilibrium solubility in water): < 1000 µg/mL | AUC(0-inf) [2]: 140 ng·h/mL | AUC(0-t) [2]: 130 ng·h/mL | Cmax [2]: 110 ng/mL | MRT last [2]: 1.38 h | Tmax [2]: 0.75 h | half-life [2]: 1.49 h

CCCCCCCCCCCCCCCCCC(=O)N[C@@H](Cc1ccc(O)cc1)C(=O)[O-].CCCCCCCCCCCCCCCCCC(=O)N[C@@H](Cc1ccc(O)cc1)C(=O)[O-].[Na+].[Na+] [NsTyr-2Na]
Equilibrium solubility in buffer solution ([1]; pH 2.0): 66.938 µg/mL | Equilibrium solubility in buffer solution ([1]; pH 3.0): 66.334 µg/mL | Equilibrium solubility in buffer solution ([1]; pH 4.0): 195.371 µg/mL | Equilibrium solubility in buffer solution ([1]; pH 5.0): 232.102 µg/mL | Equilibrium solubility in buffer solution ([1]; pH 6.0): 274.629 µg/mL | Equilibrium solubility in buffer solution ([1]; pH 7.0): 318.016 µg/mL | Equilibrium solubility in buffer solution ([1]; pH 7.4): 374.484 µg/mL | Equilibrium solubility in buffer solution ([1]; pH 8.0): 463.902 µg/mL | Equilibrium solubility in buffer solution ([1]; pH 9.0): 512.644 µg/mL | Apparent lipid-water distribution coefficient LogP [3]: 1.477 | Apparent lipid-water distribution coefficient Ko/w ([3]; buffer pH 2.0): 49.913 | Apparent lipid-water distribution coefficient LogP ([3]; buffer pH 2.0): 1.698 | Apparent lipid-water distribution coefficient Ko/w ([3]; buffer pH 3.0): 28.980 | Apparent lipid-water distribution coefficient LogP ([3]; buffer pH 3.0): 1.462 | Apparent lipid-water distribution coefficient Ko/w ([3]; buffer pH 4.0): 15.224 | Apparent lipid-water distribution coefficient LogP ([3]; buffer pH 4.0): 1.183 | Apparent lipid-water distribution coefficient Ko/w ([3]; buffer pH 5.0): 18.710 | Apparent lipid-water distribution coefficient LogP ([3]; buffer pH 5.0): 1.272 | Apparent lipid-water distribution coefficient Ko/w ([3]; buffer pH 6.0): 19.963 | Apparent lipid-water distribution coefficient LogP ([3]; buffer pH 6.0): 1.300 | Apparent lipid-water distribution coefficient Ko/w ([3]; buffer pH 7.0): 31.436 | Apparent lipid-water distribution coefficient LogP ([3]; buffer pH 7.0): 1.497 | Apparent lipid-water distribution coefficient Ko/w ([3]; buffer pH 7.4): 29.286 | Apparent lipid-water distribution coefficient LogP ([3]; buffer pH 7.4): 1.467 | Apparent lipid-water distribution coefficient Ko/w ([3]; buffer pH 8.0): 28.704 | Apparent lipid-water distribution coefficient LogP ([3]; buffer pH 8.0): 1.458 | Apparent lipid-water distribution coefficient Ko/w ([3]; buffer pH 9.0): 21.872 | Apparent lipid-water distribution coefficient LogP ([3]; buffer pH 9.0): 1.340 | stability [4]: stable properties | duration of stay at the central activity area ([5]; 15, 30, 45 mg/kg): could not be changed | mouse journey ([5]; high-dose 45 mg/kg): could increase mouse journey | duration of stay in the central area (TAU transgenic mice [6]): reduce their duration of stay in the central area | movement ability (journey) (TAU transgenic mice [6]): could enhance transgenic mouse movement ability | low anxiety state [7]: did not change | low-anxiety state (TAU transgenic mice [8]; different doses): the low-anxiety state was changed | low-anxiety state (TAU transgenic mice [8]; high-dose, compared with the animal model group): significant difference | movement coordination [9]: could obviously improve the phenomenon | latency in place navigation test ([10]; day 4, dosing group vs model group): no significant difference | latency in place navigation test [10, 16]: significant difference | swimming time percentage in the third quadrant (probe test) ([10]; day 5, platform removed, high-dose group): statistical significance | spatial probing (swimming trajectory, FIG. 11) ([10]; spatial probe test): only the high-dose group could enhance their spatial probing | latency in place navigation test (TAU transgenic mice [11]; day 4, high-dose group vs model group): significant difference | latency in place navigation test (TAU transgenic mice [11]; [16]): significant difference | swimming time percentage in the third quadrant (probe test) (TAU transgenic mice [11]; day 5, platform removed, medium-dose and high-dose group): statistical significance | spatial probing (swimming trajectory, FIG. 11) (TAU transgenic mice [11]; spatial probe test): both the medium- and high-dose groups could improve their spatial probing

CCCCCCCCCCC[C@@H](C[C@@H]1OC(=O)[C@H]1CCCCCC)OC(=O)[C@H](CC(C)C)NC=O [Orlistat, reference compound]
obese mouse weight (obese mouse model [12]; 100 mg/kg/day, four weeks): can inhibit weight gain in obese mice | appetite (average daily food intake) (obese mouse model [12]; 4-week administration, high-fat diet groups): neither NST-2K nor Orlistat suppressed appetite | perirenal fat percentage quality (obese mouse model [13]; HFD I blank 1.63 ± 0.10): 1.32 ± 0.06 g/100 g weight | Epididymal fat percentage quality (obese mouse model [13]; HFD I blank 2.99 ± 0.08): 2.66 ± 0.07 g/100 g weight | Liver percentage quality (obese mouse model [13]; HFD I blank 3.51 ± 0.07): 3.48 ± 0.06***^ g/100 g weight | size of epididymal fat cells (obese mouse model [14]; HFD III, HFD IV (NST-2K 60, 100 mg/kg/day) and HFD V (Orlistat 100 mg/kg/day) vs HFD I): evidently smaller fat cells than HFD I | fat accumulation in liver tissues (obese mouse model [14]; as the administration dose increased, vs HFD I): the accumulation began to ease

COCCOC(=O)C1=C(C)NC(C)=C(C(=O)OC(C)C)C1c1cccc([N+](=O)[O-])c1 (stereo not drawn) [nimotop, reference compound]
neurobehavioral score [15]: 1.12+/−0.31
